According to patent US20140038985A1, “TREATMENT REGIMENS” (S1 Pharmaceuticals, Inc., priority 2011, published 2014):

Columns and labels:
healthy volunteer [1] = experiment: Patient's global impression of improvement (PGI) for sexual events: arousal, orgasm, overall satisfaction; same single-subject study; format: in vivo, human
Procedure: (§1) Method. […] (1) Treatment B: […] IR Trz 50 mg t.i.d.; […] Bup 75 mg t.i.d. A washout of 1-4 weeks occurred between each treatment. […] Sexual events were counted, and three domains (sexual arousal, orgasm, and overall satisfaction with the event) were scored. Each of the sexual event variables was converted to a simple patient's global impression of improvement (PGI; improved or not improved today compared to pre-treatment baseline). […] Bup is already recommended as a treatment for HSDD; Trz is not. Thus, Fisher's exact test was applied post-hoc to the PGIs for Treatment B vs. Treatment Llow (Llow) and vs. […] Upon the advice of the independent researcher the subject dichotomized their sexual event results in a simple daily patient's global impression of improvement: improved or not improved today (compared to pre-treatment baseline). The independent researcher, when told that the results were positive for the subject but before seeing any of the data, decided to apply categorical tests to the most obvious comparisons between treatments: for the first two weeks, the second two weeks, and for all four weeks of treatment, low-dose combination of bupropion plus trazodone vs. corresponding dose of bupropion; and high-dose the combination of bupropion plus trazodone vs. same dose of trazodone. The test used for the desire score was a two-tailed paired t test. The test used for the two-category variables was an online two-tailed Fisher's exact test. Both were from the website graphpad.com.*

healthy volunteer [2] = experiment: Daily 0-2 sexual desire score in a single-subject sequential four-treatment study (4 weeks each); format: in vivo, human; conditions: for Sexual desire response (in words): overall
Procedure: as §1

Row | SMILES | Improvements in arousal, % of sexual events (healthy volunteer [1]; third and fourth weeks of use) | Improvements in arousal, % of sexual events (healthy volunteer [1]; total for all four weeks) | Improvements in arousal, % of sexual events (healthy volunteer [1]; weeks 1-2) | Improvements in arousal, fraction of sexual events (healthy volunteer [1]; weeks 1-2) | Sexual desire response (in words) (healthy volunteer [2]) | 0-2 Daily Desire Score, % of max. (max. = 28) (healthy volunteer [2]; wks 1-2) | 0-2 Daily Desire Score, % of max. (max. = 28) (healthy volunteer [2]; wks 3-4)
1 | CC(NC(C)(C)C)C(=O)c1cccc(Cl)c1 (racemic) [Bup, (±)-2-(tert-Butylamino)-1-(3-chlorophenyl)propan-1-one] | 0% | 20% | 40% | ⅖ | intermediate | 32% | 50%
2 | O=c1n(CCCN2CCN(c3cccc(Cl)c3)CC2)nc2ccccn12 [Trz, 2-{3-[4-(3-chlorophenyl)piperazin-1-yl]propyl}[1,2,4]triazolo[4,3-a]pyridin-3(2H)-one] | – | – | – | – | low | 7% | 0, 0%
